Data published in US20210228825A1, “METHODS FOR DIAGNOSING BRUGADA SYNDROME USING AN AEROSOL” (InCarda Therapeutics, Inc., priority 2018, published 2021).
Read-outs that look alike come from different tables or passages of the source.

Assay: Pharmacokinetics analysis in human clinical trial FLE-001, inhalation versus intravenous flecainide, venous plasma
Assay type: in vivo
Details: healthy adult volunteers, read-out: Peak plasma concentration of flecainide (Cmax)
Protocol: This example describes pharmacokinetics (PK) analysis performed during a human clinical trial (FLE-001) in which inhalation administration of flecainide was tested for safety and compared against intravenous administration of flecainide.
This was an open label non-randomized crossover in a cohort of 6 evaluable healthy adult volunteers. This part of the study consisted of two periods with each subject receiving a total of 2 doses of flecainide, one dose in each period. In Period 1, 3 subjects received flecainide acetate solution by inhalation at the dose level of 30 mg estimated lung total dose (eTLD). and 3 subjects received a single dose of 2 mg/kg (or 150 mg, whichever is less) via a 10 min intravenous (IV) infusion of flecainide (Tambocor™ Injection; approved and used in clinical practice in Australia). In Period 2, the subjects who received flecainide inhalation solution in Period 1 now received a single dose of IV flecainide (2 mg/kg or 150 mg, whichever is less, via a 10 min infusion), while the subjects who received IV flecainide in Period 1 now received flecainide inhalation solution (30 mg eTLD). […] The interpretation is that there was no carry over effect of treatment or other changes in the subjects' vital signs and ECG intervals between the two periods. […]

- Cmax (intravenous 2 mg/kg (or 150 mg, whichever is less), 10 min infusion, mean±SD): 749 ± 308 ng/mL
- Cmax (inhaled, inhalation of flecainide acetate solution, 30 mg eTLD): 120 ng/mL
SMILES: O=C(NCC1CCCCN1)c1cc(OCC(F)(F)F)ccc1OCC(F)(F)F (centres unmarked) [flecainide]
